Reference: ChEMBL document CHEMBL1671662, “In vitro activities of telavancin and six comparator agents against anaerobic bacterial isolates” (2009)
In brackets after ≈: the same amount, converted by molar mass.

Assays:
Type in all cases: functional
Clostridium disporicum = experiment: Antibacterial activity against Clostridium disporicum by CLSI M11-A6 agar dilution method
Ruminococcus lactaris = experiment: Antibacterial activity against Ruminococcus lactaris by CLSI M11-A6 agar dilution method
Prevotella denticola = experiment: Antibacterial activity against Prevotella P denticola by CLSI M11-A6 agar dilution method
Finegoldia magna = experiment: Antibacterial activity against Finegoldia magna by CLSI M11-A6 agar dilution method
Phocaeicola vulgatus = experiment: Antibacterial activity against Bacteroides vulgatus by CLSI M11-A6 agar dilution method
Clostridium glycolicum = experiment: Antibacterial activity against Clostridium glycolicum by CLSI M11-A6 agar dilution method; conditions: Terrisporobacter glycolicus
Bifidobacterium breve = experiment: Antibacterial activity against Bifidobacterium breve by CLSI M11-A6 agar dilution method
Bifidobacterium longum = experiment: Antibacterial activity against Bifidobacterium longum by CLSI M11-A6 agar dilution method
Parabacteroides merdae = experiment: Antibacterial activity against Parabacteroides merdae by CLSI M11-A6 agar dilution method
Prevotella bivia = experiment: Antibacterial activity against Prevotella bivia by CLSI M11-A6 agar dilution method
[1] = test system: Streptococcus constellatus; experiment: Antibacterial activity against Streptococcus constellatus by CLSI M11-A6 agar dilution method
[2] = test system: Paraclostridium bifermentans; experiment: Antibacterial activity against Clostridium bifermentans by CLSI M11-A6 agar dilution method
Clostridium bartlettii = experiment: Antibacterial activity against Clostridium bartlettii by CLSI M11-A6 agar dilution method; conditions: Intestinibacter bartlettii
[3] = test system: Streptococcus intermedius; experiment: Antibacterial activity against Streptococcus intermedius by CLSI M11-A6 agar dilution method
[4] = test system: Catenibacterium mitsuokai; experiment: Antibacterial activity against Catenibacterium mitsuokai by CLSI M11-A6 agar dilution method
Prevotella intermedia = experiment: Antibacterial activity against Prevotella intermedia by CLSI M11-A6 agar dilution method
[5] = test system: Bifidobacterium adolescentis; experiment: Antibacterial activity against Bifidobacterium adolescentis by CLSI M11-A6 agar dilution method
[6] = test system: Bifidobacterium pseudolongum; experiment: Antibacterial activity against Bifidobacterium pseudolongum by CLSI M11-A6 agar dilution method
Actinomyces naeslundii = experiment: Antibacterial activity against Actinomyces naeslundii by CLSI M11-A6 agar dilution method
Anaerococcus tetradius = experiment: Antibacterial activity against Anaerococcus tetradius by CLSI M11-A6 agar dilution method
[7] = test system: Parabacteroides distasonis; experiment: Antibacterial activity against Parabacteroides distasonis by CLSI M11-A6 agar dilution method
[8] = test system: Ruminococcus flavefaciens; experiment: Antibacterial activity against Ruminococcus flavefaciens by CLSI M11-A6 agar dilution method
Ruminococcus torques = experiment: Antibacterial activity against Ruminococcus torques by CLSI M11-A6 agar dilution method; conditions: Mediterraneibacter torques
[9] = test system: Sutterella wadsworthensis; experiment: Antibacterial activity against Sutterella wadsworthensis by CLSI M11-A6 agar dilution method
Bacteroides fragilis = experiment: Antibacterial activity against Bacteroides fragilis by CLSI M11-A6 agar dilution method
Clostridium tertium = experiment: Antibacterial activity against Clostridium tertium by CLSI M11-A6 agar dilution method
Prevotella disiens = experiment: Antibacterial activity against Prevotella P disiens by CLSI M11-A6 agar dilution method
[10] = test system: Clostridium sporosphaeroides; experiment: Antibacterial activity against Clostridium sporosphaeroides by CLSI M11-A6 agar dilution method; conditions: Faecalispora sporosphaeroides
[11] = test system: Propionibacterium propionicum; experiment: Antibacterial activity against Propionibacterium propionicus by CLSI M11-A6 agar dilution method; conditions: Arachnia propionica
Ruminococcus gnavus = experiment: Antibacterial activity against Ruminococcus gnavus by CLSI M11-A6 agar dilution method; conditions: Mediterraneibacter gnavus
Ruminococcus albus = experiment: Antibacterial activity against Ruminococcus albus by CLSI M11-A6 agar dilution method; conditions: Hominimerdicola alba
[12] = test system: Enterocloster clostridioformis; experiment: Antibacterial activity against Clostridium clostridioforme by CLSI M11-A6 agar dilution method
Coriobacterium = experiment: Antibacterial activity against […] by CLSI M11-A6 agar dilution method
[13] = test system: Clostridium paraputrificum; experiment: Antibacterial activity against Clostridium paraputrificum by CLSI M11-A6 agar dilution method
Parvimonas micra = experiment: Antibacterial activity against Peptostreptococcus micros by CLSI M11-A6 agar dilution method
[14] = test system: Peptoniphilus asaccharolyticus; experiment: Antibacterial activity against Peptoniphilus asaccharolyticus by CLSI M11-A6 agar dilution method
[15] = test system: Peptostreptococcus anaerobius; experiment: Antibacterial activity against Peptostreptococcus anaerobius by CLSI M11-A6 agar dilution method
Prevotella buccae = experiment: Antibacterial activity against Prevotella buccae by CLSI M11-A6 agar dilution method; conditions: Segatella buccae
[16] = test system: Coprobacillus cateniformis; experiment: Antibacterial activity against Coprobacillus cateniformis by CLSI M11-A6 agar dilution method
Clostridium bolteae = experiment: Antibacterial activity against Clostridium bolteae by CLSI M11-A6 agar dilution method; conditions: Enterocloster bolteae
Prevotella oris = experiment: Antibacterial activity against Prevotella oris by CLSI M11-A6 agar dilution method; conditions: Segatella oris
Odoribacter splanchnicus = experiment: Antibacterial activity against Bacteroides splanchnicus by CLSI M11-A6 agar dilution method
Clostridium hathewayi = experiment: Antibacterial activity against Clostridium hathewayi by CLSI M11-A6 agar dilution method; conditions: Hungatella hathewayi

## CCCCCCCCCCNCCN[C@@]1(C)C[C@H](O[C@H]2[C@H](Oc3c4cc5cc3Oc3ccc(cc3Cl)[C@@H](O)[C@@H](NC(=O)[C@@H](CC(C)C)NC)C(=O)N[C@@H](CC(N)=O)C(=O)N[C@H]5C(=O)N[C@H]3C(=O)N[C@H](C(=O)N[C@H](C(=O)O)c5cc(O)c(CNCP(=O)(O)O)c(O)c5-c5cc3ccc5O)[C@H](O)c3ccc(c(Cl)c3)O4)O[C@H](CO)[C@@H](O)[C@@H]2O)O[C@@H](C)[C@H]1O [TELAVANCIN]
Clostridium disporicum
  MIC50: ≤ 0.12 µg/mL
  MIC90: 0.25 µg/mL (≈ 0.142 µM)
Ruminococcus lactaris
  MIC50: ≤ 0.12 µg/mL
  MIC90: ≤ 0.12 µg/mL
Prevotella denticola
  MIC50: 8 µg/mL (≈ 4.56 µM)
  MIC90: 64 µg/mL (≈ 36.5 µM)
Finegoldia magna
  MIC50: ≤ 0.12 µg/mL
  MIC90: 0.25 µg/mL (≈ 0.142 µM)
Phocaeicola vulgatus
  MIC: > 64 µg/mL
  MIC50: > 64 µg/mL
  MIC90: > 64 µg/mL
Clostridium glycolicum
  MIC50: ≤ 0.12 µg/mL
  MIC90: 0.25 µg/mL (≈ 0.142 µM)
Bifidobacterium breve
  MIC50: ≤ 0.12 µg/mL
  MIC90: 0.5 µg/mL (≈ 0.285 µM)
Bifidobacterium longum
  MIC50: ≤ 0.12 µg/mL
  MIC90: 0.5 µg/mL (≈ 0.285 µM)
Parabacteroides merdae
  MIC: > 64 µg/mL
  MIC50: > 64 µg/mL
  MIC90: > 64 µg/mL
Prevotella bivia
  MIC50: 8 µg/mL (≈ 4.56 µM)
  MIC90: 64 µg/mL (≈ 36.5 µM)
[1]
  MIC50: ≤ 0.12 µg/mL
  MIC90: ≤ 0.12 µg/mL
[2]
  MIC50: ≤ 0.12 µg/mL
  MIC90: 0.25 µg/mL (≈ 0.142 µM)
Clostridium bartlettii
  MIC50: ≤ 0.12 µg/mL
  MIC90: 0.25 µg/mL (≈ 0.142 µM)
[3]
  MIC50: ≤ 0.12 µg/mL
  MIC90: ≤ 0.12 µg/mL
[4]
  MIC50: ≤ 0.12 µg/mL
  MIC90: 0.5 µg/mL (≈ 0.285 µM)
Prevotella intermedia
  MIC50: 8 µg/mL (≈ 4.56 µM)
  MIC90: 64 µg/mL (≈ 36.5 µM)
[5]
  MIC50: ≤ 0.12 µg/mL
  MIC90: 0.5 µg/mL (≈ 0.285 µM)
[6]
  MIC50: ≤ 0.12 µg/mL
  MIC90: 0.5 µg/mL (≈ 0.285 µM)
Actinomyces naeslundii
  MIC50: ≤ 0.12 µg/mL
  MIC90: 0.5 µg/mL (≈ 0.285 µM)
Anaerococcus tetradius
  MIC50: ≤ 0.12 µg/mL
  MIC90: 0.25 µg/mL (≈ 0.142 µM)
[7]
  MIC: > 64 µg/mL
  MIC50: > 64 µg/mL
  MIC90: > 64 µg/mL
[8]
  MIC50: ≤ 0.12 µg/mL
  MIC90: ≤ 0.12 µg/mL
Ruminococcus torques
  MIC50: ≤ 0.12 µg/mL
  MIC90: ≤ 0.12 µg/mL
[9]
  MIC: > 64 µg/mL
  MIC50: > 64 µg/mL
  MIC90: > 64 µg/mL
Bacteroides fragilis
  MIC: > 64 µg/mL
  MIC50: > 64 µg/mL
  MIC90: > 64 µg/mL
Clostridium tertium
  MIC50: ≤ 0.12 µg/mL
  MIC90: 0.25 µg/mL (≈ 0.142 µM)
Prevotella disiens
  MIC50: 8 µg/mL (≈ 4.56 µM)
  MIC90: 64 µg/mL (≈ 36.5 µM)
[10]
  MIC50: ≤ 0.12 µg/mL
  MIC90: 0.25 µg/mL (≈ 0.142 µM)
[11]
  MIC50: ≤ 0.12 µg/mL
  MIC90: 0.5 µg/mL (≈ 0.285 µM)
Ruminococcus gnavus
  MIC: ≤ 0.12 µg/mL
  MIC50: ≤ 0.12 µg/mL
  MIC90: ≤ 0.12 µg/mL
Ruminococcus albus
  MIC50: ≤ 0.12 µg/mL
  MIC90: ≤ 0.12 µg/mL
[12]
  MIC50: 4 µg/mL (≈ 2.28 µM)
  MIC90: 8 µg/mL (≈ 4.56 µM)
Coriobacterium
  MIC50: ≤ 0.12 µg/mL
  MIC90: 0.5 µg/mL (≈ 0.285 µM)
[13]
  MIC50: ≤ 0.12 µg/mL
  MIC90: 0.25 µg/mL (≈ 0.142 µM)
Parvimonas micra
  MIC50: ≤ 0.12 µg/mL
  MIC90: 0.25 µg/mL (≈ 0.142 µM)
[14]
  MIC50: ≤ 0.12 µg/mL
  MIC90: 0.25 µg/mL (≈ 0.142 µM)
[15]
  MIC50: ≤ 0.12 µg/mL
  MIC90: 0.25 µg/mL (≈ 0.142 µM)
Prevotella buccae
  MIC50: 8 µg/mL (≈ 4.56 µM)
  MIC90: 64 µg/mL (≈ 36.5 µM)
[16]
  MIC50: ≤ 0.12 µg/mL
  MIC90: 0.5 µg/mL (≈ 0.285 µM)
Clostridium bolteae
  MIC50: 4 µg/mL (≈ 2.28 µM)
  MIC90: 8 µg/mL (≈ 4.56 µM)
Prevotella oris
  MIC50: 8 µg/mL (≈ 4.56 µM)
  MIC90: 64 µg/mL (≈ 36.5 µM)
Odoribacter splanchnicus
  MIC50: > 64 µg/mL
  MIC90: > 64 µg/mL
Clostridium hathewayi
  MIC50: 0.5 µg/mL (≈ 0.285 µM)
  MIC90: 1 µg/mL (≈ 0.57 µM)
